Type in all cases: cell-based
One data set relates to Ba/F3 (D770_N771insSVD). The data set is described as follows: Cellular growth inhibition assay (CellTiter-Glo), Ba/F3 (D770_N771insSVD). The settings on record: Mus musculus, BaF3, 72 h; 3 days of incubation; read-out: Ba/F3 (D770_N771 insSVD) CC50. How it is done: (§1) Example E. Cellular Growth Inhibition Assay
(§2) Ba/F3(Empty vector) (Signosis), Ba/F3(Wild type) (Signosis), Ba/F3(L^858R+T790M) (Signosis), Ba/F3(A767_dupASV) (Signosis), Ba/F3(D770_N771insSVD) (Signosis), Ba/F3(H773_V774insNPH) (Signosis) were seeded at a density of 4000 cells per well in a CellBIND® 384-well Flat Clear Bottom Black Polystyrene Microplates (Coming, USA, Cat #3770) in 45 μl total volume of RPMI (PanEco, Cat #C330, Russia) with […] (HyClone, Cat #SV30160.03) and with 10 ng/ml rmIL-3 (RD systems, USA, Cat #403-ML-025) (for BaBF3(Empty vector)) and with 10 ng/ml rhEGF (ThermoFisher, USA, Cat #PHG0311L) (for BaCF3(Wild type)). 500× compounds solutions in DMSO (Sigma Cat #D2650) were prepared into Cmpnds plate (DiamondWell Plate, Axigen, Cat #P-384-120SQ-C—S) and DMSO only control was included. 1.l of 500× compounds (Cmpnds plate) was added to 49 µl of culture medium into Dilution plate (Diamond Well Plate, Axigen, Cat #P-384-120SQ-C—S), mixed and then 5 μl of 10× compounds solutions were transferred to cells followed by centrifugation at 100 g for 1 min. Final DMSO concentration was 0.2% o. After 3 days of incubation 10.l of CellTiter-Glo (Promega, CAT #G7572) were added to the cells, plate was centrifuged at 100 g for 1 min and luminescence signal was measured using Microplate Reader (CLARIOStar).
For orientation: In ATP-based viability assays light output follows the ATP content of the culture.

The subject of a further data set is Ba/F3 (A767_dupASV). The data set is described as follows: Cellular growth inhibition assay (CellTiter-Glo), Ba/F3 (A767_dupASV). The note with it: Mus musculus, BaF3, 72 h; 3 days of incubation; read-out: Ba/F3 (A767_dup ASV) CC50. How it is done:
as §1, §2

Another data set has as its system Ba/F3 (L858R + T790M). Description: Cellular growth inhibition assay (CellTiter-Glo), Ba/F3 (L858R+T790M). The note with it: Mus musculus, BaF3, 72 h; 3 days of incubation. How it is done: as §1, §2
Data set [1] is described as follows: Cellular growth inhibition assay (CellTiter-Glo), Ba/F3 (Empty vector). The note with it: mouse, Ba/F3 cells with empty vector; Ba/F3 (Empty vector) with 10 ng/ml rmIL-3, 3 days of incubation. How it is done:
as §1, §2

Another data set concerns Ba/F3 (H773_V774insSVD). Description: Cellular growth inhibition assay (CellTiter-Glo), Ba/F3 (H773_V774insSVD). The settings on record: Mus musculus, BaF3, 72 h; 3 days of incubation; read-out: Ba/F3 (H773_V774 insSVD) CC50.

The structures appear in SMILES notation.

As for `COc1c(F)cccc1Nc1c2[nH]c3c1C(=O)NC[C@@H]3CCCN1CC[C@@H](COc3cnccc3-2)C1` (stereo in doubt) [Compound 162, 20-[(3-Fluoro-2-methoxyphenyl)amino]-6,7,8,9,11,12,13,13a,14,15-decahydro-7,10-methano-17,19-methenodipyrido[3,4-b:4′,3′-f][1,5,11]oxadiazacyclopentadecin-16(18H)-one], the CC50 in the data set with Ba/F3 (D770_N771insSVD), in the data set on Ba/F3 (A767_dupASV), in the data set with Ba/F3 (L858R + T790M) and with Ba/F3 (H773_V774insSVD) was above 10 µM each time. In data set [1], this compound displayed a CC50 at 3 days above 10 µM.
`COc1c(F)cccc1Nc1c2[nH]c3c1C(=O)NC[C@H]3CCCN1CC[C@@H](COc3cnccc3-2)C1` (stereo in doubt) [Compound 163, 20-[(3-Fluoro-2-methoxyphenyl)amino]-6,7,8,9,11,12,13,13a,14,15-decahydro-7,10-methano-17,19-methenodipyrido[3,4-b:4′,3′-f][1,5,11]oxadiazacyclopentadecin-16(18H)-one]: the CC50 with Ba/F3 (D770_N771insSVD) was 0.1 to 1 µM; in the data set with Ba/F3 (A767_dupASV), 0.01 to 0.1 µM; in the data set with Ba/F3 (L858R + T790M), above 10 µM; in the data set on Ba/F3 (H773_V774insSVD), 0.1 to 1 µM. In data set [1], this compound gave a CC50 at 3 days above 10 µM.
`COc1c(F)cccc1Nc1c2[nH]c3c1C(=O)NCC3CCCN1CCCC(COc3cnccc3-2)C1` (stereo not shown) [Compound 12, 21-[(3-Fluoro-2-methoxyphenyl)amino]-7,8,9,10,12,13,14,14a,15,16-decahydro-6H-7,11-methano-18,20-methenodipyrido[3,4-b:4′,3′-f][1,5,11]oxadiazacyclohexadecin-17(19H)-one]: the CC50 in the data set on Ba/F3 (D770_N771insSVD) was 1 to 10 µM; in the data set on Ba/F3 (A767_dupASV) it was 0.1 to 1 µM; with Ba/F3 (L858R + T790M), above 10 µM; in the data set with Ba/F3 (H773_V774insSVD), above 10 µM. In data set [1], this compound had a CC50 at 3 days above 10 µM.
As for `COc1c(F)cccc1Nc1c2[nH]c3c1C(=O)NCC3CCCCCOc1cnccc1-2` (stereo not shown) [Compound 101, 1^3-((3-Fluoro-2-methoxyphenyl)amino)-1^4,1^5,1^6,1^7-tetrahydro-l^1H-3-oxa-1(2,7)-pyrrolo[3,2-c]pyridina-2(4,3)-pyridinacyclooctaphan-1^4-one], the CC50 lay within 0.1 to 1 µM with Ba/F3 (D770_N771insSVD), 0.01 to 0.1 µM in the data set with Ba/F3 (A767_dupASV), 1 to 10 µM with Ba/F3 (L858R + T790M) and 0.1 to 1 µM with Ba/F3 (H773_V774insSVD). The compound further displayed a CC50 at 3 days in data set [1] above 10 µM.
In the case of `COc1c(F)cccc1Nc1c2[nH]c3c1C(=O)NCC3CCCCN1CC(COc3cnccc3-2)C1` (stereo not shown) [Compound 123, 20-(3-fluoro-2-methoxyanilino)-7,8,11,12,13,13a,14,15-octahydro-6H,10H-7,9-methano-17,19-(metheno)dipyrido[3,4-b: 4′,3′-f][1,5,12]oxadiazacyclopentadecin-16(18H)-one], the CC50 was in the range of 0.01 to 0.1 µM in the data set with Ba/F3 (D770_N771insSVD), 0.001 to 0.01 µM with Ba/F3 (A767_dupASV), 0.1 to 1 µM in the data set with Ba/F3 (L858R + T790M) and 0.1 to 1 µM with Ba/F3 (H773_V774insSVD). Moreover, the CC50 at 3 days in data set [1] is 1 to 10 µM.
With `COc1c(F)cccc1Nc1c2[nH]c3c1C(=O)NC(CCCCOCCOc1cnccc1-2)C3` (stereo not shown) [Compound 133, 20-(3-fluoro-2-methoxyanilino)-2,3,5,6,7,8,9,10-octahydro-9,13-methano-12,15-(metheno)pyrido[3,4-e][1,4,8,12]dioxadiazacycloheptadecin-11(14H)-one], the CC50 was above 10 µM with Ba/F3 (D770_N771insSVD), 1 to 10 µM with Ba/F3 (A767_dupASV), above 10 µM in the data set with Ba/F3 (L858R + T790M) and above 10 µM with Ba/F3 (H773_V774insSVD). Moreover, the CC50 at 3 days in data set [1] is above 10 µM.
Consider `COc1c(F)cccc1Nc1c2[nH]c3c1C(=O)NCC3CC=CCN1CCC(CC1)COc1cnccc1-2` (stereo not shown) [Compound 135, 21-(3-fluoro-2-methoxyanilino)-6,7,8,9,14,14a,15,16-octahydro-11H-7,10-ethano-18,20-(metheno)dipyrido[3,4-b: 4′,3′-f][1,5,12]oxadiazacyclohexadecin-17(19H)-one], for which the CC50 in the data set with Ba/F3 (D770_N771insSVD), with Ba/F3 (A767_dupASV), with Ba/F3 (L858R + T790M) and in the data set with Ba/F3 (H773_V774insSVD) was above 10 µM in each case. The CC50 at 3 days in data set [1] is above 10 µM.
Consider `COc1c(F)cccc1Nc1c2[nH]c3c1C(=O)NCC3CCCCN1CCC(CC1)COc1cnccc1-2` (stereo not shown) [Compound 136, 21-[(3-Fluoro-2-methoxyphenyl)amino]-6,7,8,9,12,13,14,14a,15,16-decahydro-11H-7,10-ethano-18,20-methenodipyrido[3,4-b:4′,3′-f][1,5,12]oxadiazacyclohexadecin-17(19H)-one], for which the CC50 was above 10 µM with Ba/F3 (D770_N771insSVD), 1 to 10 µM in the data set with Ba/F3 (A767_dupASV), above 10 µM in the data set with Ba/F3 (L858R + T790M) and above 10 µM in the data set on Ba/F3 (H773_V774insSVD). For the same compound, the CC50 at 3 days in data set [1] is above 10 µM.
For the compound `COc1c(F)cccc1Nc1c2[nH]c3c1C(=O)NCC3CCCOCCCCCCN1CCC(CC1)Oc1cnccc1-2` (stereo not shown) [Compound 137, 28-(3-fluoro-2-methoxyanilino)-1,2,13,14,16,17,18,19,20,21,23,24,25,25a-tetradecahydro-12H-12,15-ethano-4,6-(metheno)dipyrido[3,4-b: 4′,3′-f][1,11,5,18]dioxadiazacyclohenicosin-3(5H)-one], the CC50 was 1 to 10 µM with Ba/F3 (D770_N771insSVD), 0.1 to 1 µM in the data set with Ba/F3 (A767_dupASV), 1 to 10 µM with Ba/F3 (L858R + T790M) and 1 to 10 µM with Ba/F3 (H773_V774insSVD). The compound also displayed a CC50 at 3 days in data set [1] above 10 µM.
`COc1c(F)cccc1Nc1c2[nH]c3c1C(=O)NCC3CC(=O)N1CC(CCOc3cnccc3-2)C1` (stereo not shown) [Compound 139, 19-(3-fluoro-2-methoxyanilino)-6,7,8,9,12,12a,13,14-octahydro-11H-8,10-methano-16,18-(metheno)dipyrido[3,4-b: 4′,3′-f][1,5,10]oxadiazacyclotetradecine-11,15(17H)-dione]: the CC50 with Ba/F3 (D770_N771insSVD) is 1 to 10 µM; with Ba/F3 (A767_dupASV), 0.1 to 1 µM; with Ba/F3 (L858R + T790M), above 10 µM; with Ba/F3 (H773_V774insSVD) it was 1 to 10 µM. Also, the CC50 at 3 days in data set [1] was above 10 µM.
As to `COc1c(F)cccc1Nc1c2[nH]c3c1C(=O)NCC3CC(=O)N[C@@H](C)C(=O)NCCCOc1cnccc1-2` (stereo partly drawn) [Compound 140, (11S)-21-(3-fluoro-2-methoxyanilino)-11-methyl-6,7,8,9,11,12,14,14a,15,16-decahydro-18,20-(metheno)dipyrido[3,4-k: 4′,3′-o][1,5,8,13]oxatriazacyclohexadecine-10,13,17(19H)-trione], the CC50 with Ba/F3 (D770_N771insSVD) is above 10 µM; in the data set with Ba/F3 (A767_dupASV), 1 to 10 µM; with Ba/F3 (L858R + T790M) it was above 10 µM; in the data set on Ba/F3 (H773_V774insSVD), above 10 µM. In addition, in data set [1], the CC50 at 3 days was above 10 µM.
`COc1c(F)cccc1Nc1c2[nH]c3c1C(=O)NCC3CC(=O)N[C@H](C)C(=O)NCCCOc1cnccc1-2` (stereo partly drawn) [Compound 141, (11R)-21-(3-fluoro-2-methoxyanilino)-11-methyl-6,7,8,9,11,12,14,14a,15,16-decahydro-18,20-(metheno)dipyrido[3,4-k: 4′,3′-o][1,5,8,13]oxatriazacyclohexadecine-10,13,17(19H)-trione]: the CC50 in the data set with Ba/F3 (D770_N771insSVD) is 1 to 10 µM; in the data set on Ba/F3 (A767_dupASV) it was 0.1 to 1 µM; in the data set with Ba/F3 (L858R + T790M), above 10 µM; in the data set on Ba/F3 (H773_V774insSVD), above 10 µM. Also, the CC50 at 3 days in data set [1] is above 10 µM.
On to `COc1c(F)cccc1Nc1c2[nH]c3c1C(=O)NCC3CCCOCCNCCCOc1cnccc1-2` (stereo not shown) [Compound 143, 22-(3-fluoro-2-methoxyanilino)-6,7,8,9,10,11,13,14,15,15a,16,17-dodecahydro-19,21-(metheno)dipyrido[3,4-i: 4′,3′-m][1,8,4,12]dioxadiazacycloheptadecin-18(20H)-one], for which the CC50 in the data set on Ba/F3 (D770_N771insSVD), with Ba/F3 (A767_dupASV), in the data set on Ba/F3 (L858R + T790M) and with Ba/F3 (H773_V774insSVD) was above 10 µM each time. The same compound yielded a CC50 at 3 days in data set [1] above 10 µM.
For the compound `COc1c(F)cccc1Nc1c2[nH]c3c1C(=O)NC[C@H]3CCCN1CCO[C@H](COc3cnccc3-2)C1` [Compound 158, (7S)-21-[(3-Fluoro-2-methoxyphenyl)amino]-6,7,9,10,12,13,14,14a,15,16-decahydro-7,11-methano-18,20-methenodipyrido[3,4-k:4′,3′-o][1,4,7,13]dioxadiazacyclohexadecin-17(19H)-one], the CC50 in the data set with Ba/F3 (D770_N771insSVD) was 1 to 10 µM; with Ba/F3 (A767_dupASV) it was 0.1 to 1 µM; in the data set on Ba/F3 (L858R + T790M), above 10 µM; in the data set on Ba/F3 (H773_V774insSVD), 1 to 10 µM. The compound further yielded a CC50 at 3 days in data set [1] of 1 to 10 µM.

Source of the values: US20250282795A1, “EGFR Inhibitors in cancer treatment” (Celyn Therapeutics, Inc., priority 2022, published 2025).
